According to the supplement of paper PMC7394473:

Assays:
Details in all cases: 72 h
[1] = system: U2OS; assay: fractional viability (live cells / total cells); higher = less cell death
Procedure: (§1)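 U2OS::Nuc-mKate2 cells seeded in 96-well plates and treated with eight- to ten-point half-log or log dilutions of drug in the presence of 50 nM SYTOX Green. Live (mKate2+) and dead (SYTOX+) cells were counted by IncuCyte STACK live-cell microscopy at 72 h; biological triplicates. GR is the normalised growth-rate inhibition value (Hafner 2016; 1 = untreated growth, <0 = population shrinking). FV is live/(live+dead) cells, not normalised.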

[2] = system: U2OS; assay: GRmin (fitted minimal GR value at highest effect) (GR value (dimensionless)); higher = less efficacious
Procedure: (§2)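 U2OS cells treated with full dose titrations of drug; live and dead cells counted by STACK microscopy (mKate2 nuclei, SYTOX Green) at 72 h, biological triplicates. GR and FV dose responses were fitted with 4-parameter logistic models (GR lower bound -1). GRADE (0-100) is the rescaled angle of a linear fit of FV versus GR at doses with GR >= 0, giving the percentage of the response due to cell death.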

[3] = system: U2OS; assay: normalized growth rate inhibition value (GR) relative to untreated cells (GR value (dimensionless, 1 = untreated growth)); higher = less growth inhibition
Procedure: as §1

[4] = system: U2OS; assay: GR50 (concentration giving GR = 0.5)
Procedure: as §2

[5] = system: U2OS; assay: drug GRADE (percent of response due to cell death) (% (0-100)); higher = more death-driven response
Procedure: as §2

Row | SMILES | fractional viability ([1]; 0.01 µM) | fractional viability ([1]; 0.0316 µM) | fractional viability ([1]; 0.1 µM) | fractional viability ([1]; 0.316 µM) | fractional viability ([1]; 1 µM) | fractional viability ([1]; 3.16 µM) | fractional viability ([1]; 10 µM) | fractional viability ([1]; 31.6 µM) | GRmin [2] | normalized growth rate inhibition value ([3]; 0.01 µM) | normalized growth rate inhibition value ([3]; 0.0316 µM) | normalized growth rate inhibition value ([3]; 0.1 µM) | normalized growth rate inhibition value ([3]; 0.316 µM) | normalized growth rate inhibition value ([3]; 1 µM) | normalized growth rate inhibition value ([3]; 3.16 µM) | normalized growth rate inhibition value ([3]; 10 µM) | normalized growth rate inhibition value ([3]; 31.6 µM) | GR50 [4] | fractional viability ([1]; 0.00100578 µM) | fractional viability ([1]; 0.00317827 µM) | fractional viability ([1]; 0.0100433 µM) | fractional viability ([1]; 0.0317369 µM) | fractional viability ([1]; 0.100289 µM) | fractional viability ([1]; 0.316912 µM) | fractional viability ([1]; 1.00144 µM) | fractional viability ([1]; 3.16456 µM) | drug GRADE [5] | normalized growth rate inhibition value ([3]; 0.00100578 µM) | normalized growth rate inhibition value ([3]; 0.00317827 µM) | normalized growth rate inhibition value ([3]; 0.0100433 µM) | normalized growth rate inhibition value ([3]; 0.0317369 µM) | normalized growth rate inhibition value ([3]; 0.100289 µM) | normalized growth rate inhibition value ([3]; 0.316912 µM) | normalized growth rate inhibition value ([3]; 1.00144 µM) | normalized growth rate inhibition value ([3]; 3.16456 µM)
1 | O=C(O)CCCc1ccc(N(CCCl)CCCl)cc1 [Chlorambucil] | 0.983 | 0.974 | 0.978 | 0.978 | 0.979 | 0.976 | 0.976 | 0.967 | 0.695 | 1.08 | 0.879 | 1.13 | 0.991 | 0.93 | 0.936 | 0.925 | 0.838 | – | – | – | – | – | – | – | – | – | – | – | – | – | – | – | – | – | –
2 | N.N.[Cl][Pt][Cl] [Cisplatin] | – | – | – | – | – | – | 0.884 | – | 0.0264 | – | – | – | – | – | – | 0.0495 | – | 1.8 µM | 0.99 | 0.989 | 0.988 | 0.99 | 0.988 | 0.986 | 0.984 | 0.957 | 11.1 | 0.959 | 0.955 | 1.02 | 0.95 | 0.901 | 0.972 | 0.755 | 0.248
3 | CN(C)/N=N/c1[nH]cnc1C(N)=O [Dacarbazine] | 0.975 | 0.984 | 0.974 | 0.978 | 0.975 | 0.964 | 0.942 | 0.926 | 0.749 | 1.08 | 1.01 | 0.899 | 0.939 | 0.934 | 0.821 | 0.837 | 0.769 | – | – | – | – | – | – | – | – | – | – | – | – | – | – | – | – | – | –
4 | Cc1nc(Nc2ncc(C(=O)Nc3c(C)cccc3Cl)s2)cc(N2CCN(CCO)CC2)n1 [Dasatinib] | – | – | – | – | – | – | 0.635 | – | – | – | – | – | – | – | – | -0.105 | – | 1.68 µM | 0.99 | 0.988 | 0.979 | 0.974 | 0.976 | 0.97 | 0.963 | 0.913 | 26.7 | 0.806 | 0.867 | 0.998 | 0.833 | 0.762 | 0.799 | 0.605 | 0.35
5 | CCOc1ccccc1-n1c(C(C)N2CCN(C(=O)COc3ccc(Cl)cc3)CC2)nc2ccccc2c1=O (stereo not drawn) [Erastin] | 0.977 | 0.982 | 0.983 | 0.976 | 0.961 | 0.945 | 0.647 | 0.531 | -0.351 | 0.987 | 1 | 0.973 | 0.878 | 0.826 | 0.586 | 0.22 | -0.0643 | 4.14 µM | – | – | – | – | – | – | – | – | 44.7 | – | – | – | – | – | – | – | –
6 | C#Cc1cccc(Nc2ncnc3cc(OCCOC)c(OCCOC)cc23)c1 [Erlotinib] | 0.973 | 0.976 | 0.977 | 0.967 | 0.96 | 0.96 | 0.913 | 0.697 | 0.542 | 0.935 | 0.993 | 1.03 | 0.986 | 1.06 | 0.928 | 0.636 | 0.545 | – | – | – | – | – | – | – | – | – | 62.1 | – | – | – | – | – | – | – | –
7 | COc1cc([C@@H]2c3cc4c(cc3[C@@H](O[C@@H]3O[C@@H]5CO[C@@H](C)O[C@H]5[C@H](O)[C@H]3O)[C@H]3COC(=O)[C@H]23)OCO4)cc(OC)c1O [Etoposide] | – | – | – | – | – | – | 0.628 | – | -0.106 | – | – | – | – | – | – | -0.155 | – | 0.0978 µM | 0.99 | 0.988 | 0.993 | 0.989 | 0.975 | 0.952 | 0.96 | 0.922 | 8.6 | 0.934 | 1.02 | 0.895 | 0.785 | 0.524 | 0.11 | -0.0401 | -0.0127
8 | CO[C@H]1C[C@@H]2CC[C@@H](C)[C@@](O)(O2)C(=O)C(=O)N2CCCC[C@H]2C(=O)O[C@H]([C@H](C)C[C@@H]2CC[C@@H](OCCO)[C@H](OC)C2)CC(=O)[C@H](C)/C=C(\C)[C@@H](O)[C@@H](OC)C(=O)[C@H](C)C[C@H](C)/C=C/C=C/C=C/1C [Everolimus] | – | – | – | – | – | – | 0.984 | – | -0.334 | – | – | – | – | – | – | 0.515 | – | – | 0.994 | 0.992 | 0.991 | 0.994 | 0.993 | 0.994 | 0.989 | 0.99 | 0.964 | 0.653 | 0.758 | 0.721 | 0.653 | 0.738 | 0.79 | 0.598 | 0.524
